In patent publication US9096602B2, “Substituted pyrrolo[2,3-B]pyrazines as ATR kinase inhibitors” (Vertex Pharmaceuticals Incorporated, priority 2011, dated 2015):
Like-named read-outs stand apart in the source and are kept apart here.

Target: T1, ATR kinase (full-length ATR) (Homo sapiens, UniProt Q13535)
T1 construct: Assays were carried out at 25° C. in the presence of 5 nM full-length ATR
Test: ATR Inhibition Assay (radioactive-phosphate incorporation)
Assay type: biochemical
Conditions: Ki(app), 5 nM full-length ATR, 10 μM ATP, 800 μM target peptide, 25° C., read-out: ATR Inhibition Ki
Description: Compounds were screened for their ability to inhibit ATR kinase using a radioactive-phosphate incorporation assay. Assays were carried out in a mixture of 50 mM Tris/HCl (pH 7.5), 10 mM MgCl2 and 1 mM DTT. Final substrate concentrations were 10 μM [y-33P]ATP (3mCi 33P ATP/mmol ATP, Perkin Elmer) and 800 μM target peptide ([…]).
Assays were carried out at 25° C. in the presence of 5 nM full-length ATR. An assay stock buffer solution was prepared containing all of the reagents listed above, with the exception of ATP and the test compound of interest. […] The plate was pre-incubated for 10 minutes at 25° C. and the reaction initiated by addition of 15 μL [y-33P]ATP (final concentration 10 μM).
The reaction was stopped after […] by the addition of 30 μL 0.1M phosphoric acid containing 2 mM ATP. A multiscreen phosphocellulose filter 96-well plate (Millipore, Cat no. MAPHN0B50) was pretreated with 100 μL 0.2M phosphoric acid prior to the addition of 45 μL of the stopped assay mixture. The plate was washed with 5×200 μL 0.2M phosphoric acid.
After removing mean background values for all of the data points, Ki(app) data were calculated from non-linear regression analysis of the initial rate data using the Prism software package (GraphPad Prism version 3.0cx for Macintosh, GraphPad Software, San Diego Calif., USA).

[1] = given as numeric lower bound without unit

T1 sequence (Q13535 whole entry): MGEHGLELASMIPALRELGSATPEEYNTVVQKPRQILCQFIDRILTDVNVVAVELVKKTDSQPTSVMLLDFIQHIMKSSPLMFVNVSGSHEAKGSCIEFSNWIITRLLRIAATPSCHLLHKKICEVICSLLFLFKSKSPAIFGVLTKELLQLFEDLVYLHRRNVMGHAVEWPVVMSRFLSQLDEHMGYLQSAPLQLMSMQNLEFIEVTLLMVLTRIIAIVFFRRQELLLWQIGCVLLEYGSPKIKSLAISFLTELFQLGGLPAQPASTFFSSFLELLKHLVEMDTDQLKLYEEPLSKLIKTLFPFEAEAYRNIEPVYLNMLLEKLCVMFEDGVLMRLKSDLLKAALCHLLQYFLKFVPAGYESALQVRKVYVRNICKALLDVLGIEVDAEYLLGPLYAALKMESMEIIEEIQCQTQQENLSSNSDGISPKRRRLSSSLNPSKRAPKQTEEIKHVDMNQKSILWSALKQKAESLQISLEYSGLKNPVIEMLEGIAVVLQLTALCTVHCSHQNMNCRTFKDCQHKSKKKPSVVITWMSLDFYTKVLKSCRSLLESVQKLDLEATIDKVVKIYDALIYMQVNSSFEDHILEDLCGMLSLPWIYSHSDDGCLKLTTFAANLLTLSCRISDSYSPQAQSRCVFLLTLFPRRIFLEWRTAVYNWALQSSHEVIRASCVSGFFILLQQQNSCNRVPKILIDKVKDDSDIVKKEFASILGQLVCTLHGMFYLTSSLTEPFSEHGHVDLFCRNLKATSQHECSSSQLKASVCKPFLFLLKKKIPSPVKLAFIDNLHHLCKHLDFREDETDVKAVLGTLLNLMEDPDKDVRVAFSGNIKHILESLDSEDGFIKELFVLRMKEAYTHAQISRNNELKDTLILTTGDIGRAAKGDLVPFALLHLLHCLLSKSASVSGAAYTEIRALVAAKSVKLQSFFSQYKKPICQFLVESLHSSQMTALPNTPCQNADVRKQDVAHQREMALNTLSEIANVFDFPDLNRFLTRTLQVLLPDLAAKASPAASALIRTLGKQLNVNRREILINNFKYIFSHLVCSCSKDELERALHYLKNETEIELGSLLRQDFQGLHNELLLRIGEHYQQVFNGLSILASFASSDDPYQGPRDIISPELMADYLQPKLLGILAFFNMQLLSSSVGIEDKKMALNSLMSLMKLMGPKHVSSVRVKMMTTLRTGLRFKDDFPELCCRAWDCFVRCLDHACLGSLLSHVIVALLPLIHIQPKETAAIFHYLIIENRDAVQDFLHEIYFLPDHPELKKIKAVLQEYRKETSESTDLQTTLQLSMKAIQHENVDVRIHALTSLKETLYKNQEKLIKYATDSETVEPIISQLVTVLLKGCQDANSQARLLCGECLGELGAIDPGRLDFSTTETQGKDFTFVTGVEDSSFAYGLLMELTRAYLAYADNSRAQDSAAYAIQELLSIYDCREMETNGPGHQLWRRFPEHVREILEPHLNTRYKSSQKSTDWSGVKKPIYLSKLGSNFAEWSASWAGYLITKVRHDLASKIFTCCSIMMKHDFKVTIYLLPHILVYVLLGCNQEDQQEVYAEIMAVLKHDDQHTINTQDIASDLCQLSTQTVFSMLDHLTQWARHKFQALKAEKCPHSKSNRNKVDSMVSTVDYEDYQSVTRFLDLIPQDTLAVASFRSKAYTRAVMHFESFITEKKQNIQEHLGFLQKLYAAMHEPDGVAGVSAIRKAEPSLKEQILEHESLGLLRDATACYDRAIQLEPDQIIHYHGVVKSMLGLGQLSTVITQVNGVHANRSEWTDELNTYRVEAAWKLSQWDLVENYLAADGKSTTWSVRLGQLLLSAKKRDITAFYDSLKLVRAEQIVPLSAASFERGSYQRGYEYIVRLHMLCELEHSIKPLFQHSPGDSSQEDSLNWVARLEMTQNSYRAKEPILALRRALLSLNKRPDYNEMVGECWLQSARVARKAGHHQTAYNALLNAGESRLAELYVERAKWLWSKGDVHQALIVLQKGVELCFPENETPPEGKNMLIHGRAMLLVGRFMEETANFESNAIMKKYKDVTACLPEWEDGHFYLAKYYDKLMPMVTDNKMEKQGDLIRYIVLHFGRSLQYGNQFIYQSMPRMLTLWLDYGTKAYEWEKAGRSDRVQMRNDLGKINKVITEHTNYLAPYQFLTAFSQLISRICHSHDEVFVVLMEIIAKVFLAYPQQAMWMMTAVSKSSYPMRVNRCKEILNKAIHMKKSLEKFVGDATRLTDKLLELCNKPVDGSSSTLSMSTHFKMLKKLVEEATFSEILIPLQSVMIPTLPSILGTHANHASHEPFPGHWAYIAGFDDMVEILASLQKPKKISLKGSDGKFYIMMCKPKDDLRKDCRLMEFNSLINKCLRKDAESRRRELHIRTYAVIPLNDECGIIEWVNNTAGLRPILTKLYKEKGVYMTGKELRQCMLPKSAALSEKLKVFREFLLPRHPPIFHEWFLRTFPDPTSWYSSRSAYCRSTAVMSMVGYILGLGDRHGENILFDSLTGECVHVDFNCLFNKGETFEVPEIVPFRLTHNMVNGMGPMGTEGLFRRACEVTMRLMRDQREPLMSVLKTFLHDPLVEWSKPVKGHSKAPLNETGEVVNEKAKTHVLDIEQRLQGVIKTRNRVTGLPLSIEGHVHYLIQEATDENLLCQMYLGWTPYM

| SMILES | Ki (class symbols) | Ki [1] |
| --- | --- | --- |
| CC(C)S(=O)(=O)c1ccc(-c2cnc3[nH]cc(C(=O)N4CCC(O)C4)c3n2)cc1 (centres unmarked) [Compound I-28, (3-hydroxypyrrolidin-1-yl)-[2-(4-isopropylsulfonylphenyl)-5H-pyrrolo[2,3-b]pyrazin-7-yl]methanone] | 500 to 5000 nM | – |
| CC(C)S(=O)(=O)c1ccc(-c2cnc3[nH]cc(C(=O)NCC4CCC4)c3n2)cc1 [Compound I-29, N-(cyclobutylmethyl)-2-(4-isopropylsulfonylphenyl)-5H-pyrrolo[2,3-b]pyrazine-7-carboxamide] | < 100 nM | – |
| CC(C)S(=O)(=O)c1ccc(-c2cnc3[nH]cc(C(=O)NCC4CCCC4)c3n2)cc1 [Compound I-30, N-(cyclopentylmethyl)-2-(4-isopropylsulfonylphenyl)-5H-pyrrolo[2,3-b]pyrazine-7-carboxamide] | 500 to 5000 nM | – |
| CC(C)S(=O)(=O)c1ccc(-c2cnc3[nH]cc(C(=O)NCC4CCCCC4)c3n2)cc1 [Compound I-31, N-(cyclohexylmethyl)-2-(4-isopropylsulfonylphenyl)-5H-pyrrolo[2,3-b]pyrazine-7-carboxamide] | – | > 500 nM |
| CC(C)S(=O)(=O)c1ccc(-c2cnc3[nH]cc(C(=O)N4CCC(CO)CC4)c3n2)cc1 [Compound I-32, [4-(hydroxymethyl)-1-piperidyl]-[2-(4-isopropylsulfonylphenyl)-5H-pyrrolo[2,3-b]pyrazin-7-yl]methanone] | – | > 4000 nM |
| CC(C)S(=O)(=O)c1ccc(-c2cnc3[nH]cc(C(=O)NC[C@@H]4CCCC[C@H]4O)c3n2)cc1 [Compound I-33, N-[[(1S,2R)-2-hydroxycyclohexyl]methyl]-2-(4-isopropylsulfonylphenyl)-5H-pyrrolo[2,3-b]pyrazine-7-carboxamide] | < 100 nM | – |
| CC(O)c1cccc(NC(=O)c2c[nH]c3ncc(-c4ccc(S(=O)(=O)C(C)C)cc4)nc23)c1 (centres unmarked) [Compound I-34, N-[3-(1-hydroxyethyl)phenyl]-2-(4-isopropylsulfonylphenyl)-5H-pyrrolo[2,3-b]pyrazine-7-carboxamide] | 100 to 500 nM | – |
| CC(C)S(=O)(=O)c1ccc(-c2cnc3[nH]cc(C(=O)N[C@@H](C)c4ccccc4)c3n2)cc1 [Compound I-35, 2-(4-isopropylsulfonylphenyl)-N-[(1S)-1-phenylethyl]-5H-pyrrolo[2,3-b]pyrazine-7-carboxamide] | 500 to 5000 nM | – |
| CC(C)S(=O)(=O)c1ccc(-c2cnc3[nH]cc(C(=O)Nc4cccc(C(N)=O)c4)c3n2)cc1 [Compound I-36, N-(3-carbamoylphenyl)-2-(4-isopropylsulfonylphenyl)-5H-pyrrolo[2,3-b]pyrazine-7-carboxamide] | < 100 nM | – |
| CC(C)S(=O)(=O)c1ccc(-c2cnc3[nH]cc(C(=O)NC[C@H](O)c4ccccc4)c3n2)cc1 [Compound I-37, N-[(2R)-2-hydroxy-2-phenyl-ethyl]-2-(4-isopropylsulfonylphenyl)-5H-pyrrolo[2,3-b]pyrazine-7-carboxamide] | < 100 nM | – |
| CC(C)S(=O)(=O)c1ccc(-c2cnc3[nH]cc(C(=O)NCc4ccc(N5CCOCC5)cc4)c3n2)cc1 [Compound I-38, 2-(4-isopropylsulfonylphenyl)-N-[(4-morpholinophenyl)methyl]-5H-pyrrolo[2,3-b]pyrazine-7-carboxamide] | 500 to 5000 nM | – |
| CC(C)S(=O)(=O)c1ccc(-c2cnc3[nH]cc(C(=O)N4CCCCC4)c3n2)cc1 [Compound I-39, [2-(4-isopropylsulfonylphenyl)-5H-pyrrolo[2,3-b]pyrazin-7-yl]-(1-piperidyl)methanone] | – | > 250 nM |
| CC(C)S(=O)(=O)c1ccc(-c2cnc3[nH]cc(C(=O)N4CCCC4CO)c3n2)cc1 (centres unmarked) [Compound I-40, [2-(hydroxymethyl)pyrrolidin-1-yl]-[2-(4-isopropylsulfonylphenyl)-5H-pyrrolo[2,3-b]pyrazin-7-yl]methanone] | 500 to 5000 nM | – |
| CC(C)S(=O)(=O)c1ccc(-c2cnc3[nH]cc(C(=O)Nc4ccccc4C#N)c3n2)cc1 [Compound I-41, N-(2-cyanophenyl)-2-(4-isopropylsulfonylphenyl)-5H-pyrrolo[2,3-b]pyrazine-7-carboxamide] | < 100 nM | – |
